Where a SMILES comes first, the peptide text is derived from it. [ ]: non-standard residue; d: D form. dPhe(4-Cl) = N[C@H](Cc1ccc(Cl)cc1)C(=O)O; d2Nal = N[C@H](Cc1ccc2ccccc2c1)C(=O)O
Key:
histamine release = details: cited from earlier work
rat mast cells [1] = details: mast cell supernatants assayed concomitantly for lactic dehydrogenase
Source text: The ED50 values of Table I (mean effective dose from dose response curves), are expressed in μg/ml. […] For routine testing, mast cells were not purified.

rat = assay: Standard antiovulatory assay (Corbin and Beattie); assay type: in vivo
Procedure: Antiovulatory activity was determined by standard antiovulatory assays conducted by the method described by Corbin and Beattie, Endocrine Research Communications 2 1 (1975) and results are given in Table I.

rat mast cells [2] = assay: In vitro histamine releasing activity assay (rat peritoneal mast cell suspension, fluorometric histamine assay); assay type: cell-based; details: mean effective dose from dose response curves, 15 min at 37° C., duplicate or triplicate, cells from at least three rats
Procedure: The in vitro histamine release activity of the analogs was assayed by the method described below and the results are given in Table I.
A suspension of rat mast cells was added to increasing concentrations of peptide and the mixture was incubated for a few minutes followed by centrifugation to collect the histamine in the supernatant. A PIPES (piperazine-N,N'-bis[2-ethanesulfonic acid]) medium buffered at pH 7.4 containing NaCl119 mM, KCl5 mM, PIPES 25mM, NaOH 40 mM, glucose 5.6 mM, CaCl2 1 mM and 0.1% bovine serum albumin was used. This was designated as PIPES AC. Peptides were dissolved in double distilled H2 O at a concentration of 2 mg ml and stored at -20° C. They were thawed just prior to testing, duluted in PIPES AC and prewarmed for 5 min. at 37° C. Peptides studied were stable to heating at 56° C. for 2 hr., and to freezing and thawing.
Peritoneal cells were collected from male Sprague-Dawley rats weighing 200 to 250 gm and purchased from Harlan (Madison, Wis.). After euthanasia by CO2, the peritoneal cavity was washed with 50 ml PIPES AC medium containing 20 units of heparin. Following centrifugation at 200×g for 8 min. at 4° C., cells were washed again and finally resuspended to a concentration of 8 to 24×10^5 total leukocytes/ml in PIPES AC. This suspension contained approximately 5-10% mast cells. […]

For `CC(=O)N[C@H](Cc1ccc2ccccc2c1)C(=O)N[C@H](Cc1ccc(Cl)cc1)C(=O)N[C@H](Cc1c[nH]c2ccccc12)C(=O)N[C@@H](CO)C(=O)N[C@@H](Cc1ccc(O)cc1)C(=O)N[C@H](CCCNC(=N)N)C(=O)N[C@@H](CC(C)C)C(=O)N[C@@H](CCCNC(=N)N)C(=O)N1CCC[C@H]1C(=O)N[C@H](C)C(N)=O` [Compound 1, [N-Ac-D-Nal(2)^1, D-p-Cl-Phe^2, D-Trp^3, D-Arg^6, D-Ala^10] LHRH] (Ac-[d2Nal][dPhe(4-Cl)][dW]SY[dR]LRP[dA]-NH2), the “histamine releasing activity (in words)” value (histamine release; Karten and Rivier 1986) is listed as “potent histamine releasing anlog”.
For `CC(C)C[C@H](NC(=O)CNC(=O)[C@H](Cc1ccc(O)cc1)NC(=O)[C@H](CO)NC(=O)[C@H](Cc1c[nH]c2ccccc12)NC(=O)[C@H](Cc1cnc[nH]1)NC(=O)[C@@H]1CCC(=O)N1)C(=O)N[C@@H](CCCNC(=N)N)C(=O)N1CCC[C@H]1C(=O)NCC(N)=O` [LHRH, luteinizing hormone-releasing hormone], the “cell toxicity by release of lactic dehydrogenase” value (rat mast cells [1]) was “no evidence seen of cell toxicity”.
In the case of “[Ac-2-D-Nal^1, α-Me-4-C1-D-Phe^2, D-Trp^3, Arg^5, D-Tyr^6, D-Ala^10 ] LHRH”, the “times less potent in histamine releasing activity than the synthetic D-Arg6 antagonists” value (histamine release; Roeske et al. 1985) is listed as 20-40 times.
In the case of “[Ac-D-2-Nal^1, D-4-C1-Phe^2, D-Trp^3, D-N^ε -Heptyl Lys, Nε-Heptyl Lys^8, D-Ala^10 ]LHRH”, the “antiovulatory activity (in words)” value (rat; N-alkylation of Lys 6 and 8 with a 7-carbon moiety) is reported as “lowers antiovulatory activity markedly”.
For “[N--Ac--D-Nal(2)^1,D-C--α-Me--pCl--Phe^2,D-Pal(3)^3,D-Arg^6,hArg(Et2)^8,D-Ala^10 ]LHRH [Compound 2]”, the “In Vitro Histamine Release ED50” value (rat mast cells [2]) was 4.9 µg/mL and the “Ovulation Inhibition, Corn Oil, ED100” value (rat; corn oil vehicle, ≥ = significant reduction in rats ovulating but ED100 not achieved at the dose, ≥≥ = inactive at the dose tested) was 1.0 ug/rat.
In the case of “[N-Ac-D-Nal(2)^1, D-pC1-Phe^2, D-Pal^3, Arg^5, D-Tyr^6, D-Ala^10 ]LHRH”, the “mean effective dose for histamine release (known analog)” value (histamine release; from Roeske et al. 1985) is listed as “about 4.0 ug/ml”.
